Laboratory results reported in patent US8030336B2, “Nicotinamide-based kinase inhibitors” (YM Biosciences Australia Pty Ltd, priority 2002, dated 2011).

Assays:
Format in all cases: biochemical
human JAK2 = molecular target: T1, human JAK2 (Homo sapiens, UniProt O60674); experiment: JAK2 kinase assay (ELISA or Alphascreen); conditions: read-out: Jak2 inhibition of enzyme activity
T1 construct: The kinase domain of human JAK2 was amplified from U937mRNA; His tag (from the pFastBac HTc vector) (N); made in house; host or cells: baculovirus; Sf9 for virus, High Five insect cells for production
Summary of the method: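 His-tagged human JAK2 kinase domain from baculovirus-infected insect cells, ~1.5 μg per assay, in 50 mM HEPES pH 7.5, 10 mM MgCl2, 150 mM NaCl, with 10 μM–1 mM ATP and 5 μM biotinylated peptide substrate. Phosphotyrosine detected by PY20 ELISA or AlphaScreen.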

abl = molecular target: T2, abl (Homo sapiens, UniProt P00519); experiment: abl kinase assay (ELISA or Alphascreen); conditions: read-out: abl inhibition of enzyme activity
T2 sequence (P00519 242-493 limits assumed): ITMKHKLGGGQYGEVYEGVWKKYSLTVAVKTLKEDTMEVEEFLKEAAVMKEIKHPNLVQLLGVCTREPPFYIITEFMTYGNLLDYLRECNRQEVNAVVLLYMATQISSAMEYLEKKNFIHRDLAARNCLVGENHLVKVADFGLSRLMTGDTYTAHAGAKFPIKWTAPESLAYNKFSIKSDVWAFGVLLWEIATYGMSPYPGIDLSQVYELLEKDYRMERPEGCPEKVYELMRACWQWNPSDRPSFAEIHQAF
Summary of the method: (§1)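 PTK domain ~1.5 μg; 50 mM HEPES pH 7.5, 10 mM MgCl2, 150 mM NaCl; ATP 10 μM-1 mM; biotinylated peptide 5 μM final. Read-out: avidin-capture ELISA with PY20 or Alphascreen pTyr acceptor/streptavidin donor beads.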

fms = molecular target: T3, fms (Homo sapiens, UniProt P07333); experiment: fms kinase assay (ELISA or Alphascreen); conditions: read-out: fms inhibition of enzyme activity
T3 sequence (P07333 582-910 limits assumed): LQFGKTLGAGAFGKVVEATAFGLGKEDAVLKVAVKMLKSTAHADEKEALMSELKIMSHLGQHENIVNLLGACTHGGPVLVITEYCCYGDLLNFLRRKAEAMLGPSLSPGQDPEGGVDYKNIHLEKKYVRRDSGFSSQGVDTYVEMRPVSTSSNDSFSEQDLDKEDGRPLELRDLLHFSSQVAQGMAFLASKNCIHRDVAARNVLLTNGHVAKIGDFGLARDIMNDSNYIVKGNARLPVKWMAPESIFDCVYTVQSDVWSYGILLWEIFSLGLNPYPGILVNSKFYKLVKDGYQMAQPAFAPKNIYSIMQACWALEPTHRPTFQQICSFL
Summary of the method: as §1

Zap70 = molecular target: T4, Zap70 (Homo sapiens, UniProt P43403); experiment: Zap70 kinase assay (ELISA or Alphascreen); conditions: read-out: Zap70 inhibition of enzyme activity
T4 sequence (P43403 338-600 limits assumed): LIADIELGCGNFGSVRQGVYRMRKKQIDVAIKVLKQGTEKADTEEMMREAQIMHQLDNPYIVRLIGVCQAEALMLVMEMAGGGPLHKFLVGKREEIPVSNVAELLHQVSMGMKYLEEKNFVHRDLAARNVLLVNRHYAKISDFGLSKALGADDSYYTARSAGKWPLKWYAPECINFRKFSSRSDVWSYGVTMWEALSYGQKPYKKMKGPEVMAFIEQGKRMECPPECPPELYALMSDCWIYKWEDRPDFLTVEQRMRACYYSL
Summary of the method: as §1

hck = hck (Homo sapiens, UniProt P08631); experiment: hck kinase assay (ELISA or Alphascreen); conditions: read-out: hck inhibition of enzyme activity
Summary of the method: as §1

fes = fes (Homo sapiens, UniProt P07332); experiment: fes kinase assay (ELISA or Alphascreen); conditions: read-out: fes inhibition of enzyme activity
Summary of the method: as §1

human JAK3 = molecular target: T5, human JAK3 (Homo sapiens, UniProt P52333); experiment: JAK3 kinase assay (ELISA or Alphascreen); conditions: read-out: Jak3 inhibition of enzyme activity
T5 construct: The kinase domain of human JAK3 was amplified from U937mRNA; His tag (from the pFastBac HTb vector) (N); made in house; host or cells: baculovirus; Sf9 for virus, High Five insect cells for production
Summary of the method: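 Read-out: anti-phosphotyrosine detection of a 5 μM biotin-peptide substrate, via PY20-peroxidase ELISA or Alphascreen beads. Enzyme was nickel-purified recombinant JAK3 kinase domain (~1.5 μg), with ATP at 10 μM-1 mM, pH 7.5 HEPES/MgCl2/NaCl.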

T1 sequence (O60674 849-1124 limits assumed): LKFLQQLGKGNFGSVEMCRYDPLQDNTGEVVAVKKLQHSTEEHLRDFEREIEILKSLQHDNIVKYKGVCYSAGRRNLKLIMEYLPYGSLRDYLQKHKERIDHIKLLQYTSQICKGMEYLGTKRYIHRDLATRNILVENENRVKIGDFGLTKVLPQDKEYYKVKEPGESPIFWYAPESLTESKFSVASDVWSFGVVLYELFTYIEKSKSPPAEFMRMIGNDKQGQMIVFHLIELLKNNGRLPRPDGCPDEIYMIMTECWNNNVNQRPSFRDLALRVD
T5 sequence (P52333 822-1111 limits assumed): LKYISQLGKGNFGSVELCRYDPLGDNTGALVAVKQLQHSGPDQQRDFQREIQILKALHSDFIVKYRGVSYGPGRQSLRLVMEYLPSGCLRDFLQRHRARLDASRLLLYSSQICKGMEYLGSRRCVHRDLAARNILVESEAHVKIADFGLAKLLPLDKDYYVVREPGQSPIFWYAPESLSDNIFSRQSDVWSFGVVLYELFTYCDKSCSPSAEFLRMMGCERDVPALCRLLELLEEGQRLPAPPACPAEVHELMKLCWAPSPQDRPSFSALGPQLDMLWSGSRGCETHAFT
hck, sequence (P08631 262-515 limits assumed, species assumed): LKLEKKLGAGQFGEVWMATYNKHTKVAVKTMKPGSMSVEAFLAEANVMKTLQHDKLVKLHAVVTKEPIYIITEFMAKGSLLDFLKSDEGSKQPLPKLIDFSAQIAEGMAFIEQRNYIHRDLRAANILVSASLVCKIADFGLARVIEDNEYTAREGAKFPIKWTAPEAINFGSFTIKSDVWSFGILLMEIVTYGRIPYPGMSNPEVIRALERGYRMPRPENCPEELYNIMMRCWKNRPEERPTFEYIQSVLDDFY
fes, sequence (P07332 561-822 limits assumed, species assumed): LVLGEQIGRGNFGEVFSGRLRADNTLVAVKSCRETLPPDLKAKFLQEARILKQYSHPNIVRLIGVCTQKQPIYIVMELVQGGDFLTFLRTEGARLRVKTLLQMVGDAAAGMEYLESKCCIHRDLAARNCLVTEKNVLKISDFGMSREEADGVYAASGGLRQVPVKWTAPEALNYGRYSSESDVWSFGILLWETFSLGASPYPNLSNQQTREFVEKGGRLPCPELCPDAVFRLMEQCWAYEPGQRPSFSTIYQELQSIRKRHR

| inhibition at 10 µM (human JAK2) [%] | inhibition at 10 µM (abl) [%] | inhibition at 10 µM (fms) [%] | inhibition at 10 µM (Zap70) [%] | inhibition at 10 µM (hck) [%] | inhibition at 10 µM (fes) [%] | inhibition at 10 µM (human JAK3) [%] | Compound |
| --- | --- | --- | --- | --- | --- | --- | --- |
| < 50 | < 50 | ≥ 50 | < 50 | < 50 | < 50 | < 50 | O=C(NCc1ccco1)c1cncc(-c2ccc(O)cc2)c1 |
| < 50 | < 50 | ≥ 50 | < 50 | < 50 | < 50 | < 50 | Cc1cc(-c2cncc(C(=O)NCc3ccncc3)c2)cc(C)c1O |
| < 50 | < 50 | < 50 | ≥ 50 | < 50 | < 50 | < 50 | Cc1cc(-c2cncc(C(=O)NCc3ccco3)c2)cc(C)c1O |
| < 50 | < 50 | < 50 | ≥ 50 | < 50 | < 50 | < 50 | Cc1cc(-c2cncc(C(=O)NC(C)C)c2)cc(C)c1O |
| < 50 | < 50 | ≥ 50 | < 50 | ≥ 50 | < 50 | < 50 | COc1cc(-c2cncc(C(=O)Nc3cc(F)ccc3C)c2)c(Cl)c(OC)c1OC |
| ≥ 50 | < 50 | ≥ 50 | < 50 | < 50 | < 50 | ≥ 50 | COc1ccc(NC(=O)c2cncc(-c3cccnc3)c2)c(OC)c1 |
| < 50 | < 50 | < 50 | < 50 | < 50 | < 50 | < 50 | CN(C)CCNC(=O)c1cncc(-c2ccc(F)cc2)c1 |
| < 50 | < 50 | < 50 | ≥ 50 | < 50 | < 50 | < 50 | COc1cccc([C@H](C)NC(=O)c2cncc(-c3ccc(F)cc3)c2)c1 |
| ≥ 50 | < 50 | < 50 | ≥ 50 | < 50 | < 50 | < 50 | COc1cc(CNC(=O)c2cncc(-c3cc(OC)c(OC)c(OC)c3Cl)c2)cc(OC)c1 |
| < 50 | < 50 | < 50 | ≥ 50 | < 50 | < 50 | < 50 | COc1cc(CNC(=O)c2cncc(-c3cccc(OC)c3)c2)cc(OC)c1 |
| < 50 | < 50 | < 50 | ≥ 50 | < 50 | < 50 | < 50 | COc1cccc(-c2cncc(C(=O)NCc3ccco3)c2)c1 |
| < 50 | < 50 | < 50 | ≥ 50 | < 50 | < 50 | < 50 | COc1ccc(CNC(=O)c2cncc(-c3cccc(OC)c3)c2)cc1 |
| < 50 | < 50 | < 50 | ≥ 50 | < 50 | < 50 | < 50 | COc1cccc(-c2cncc(C(=O)NCc3ccc(C)cc3)c2)c1 |
| < 50 | < 50 | < 50 | ≥ 50 | < 50 | < 50 | < 50 | COc1cccc(-c2cncc(C(=O)NCCc3ccccc3)c2)c1 |
| < 50 | < 50 | < 50 | ≥ 50 | < 50 | < 50 | < 50 | COc1cccc(-c2cncc(C(=O)N[C@@H](C)c3cccc(OC)c3)c2)c1 |
| < 50 | < 50 | < 50 | ≥ 50 | ≥ 50 | < 50 | < 50 | COc1cccc(-c2cncc(C(=O)Nc3cc(C)ccc3C)c2)c1 |
| < 50 | ≥ 50 | < 50 | < 50 | ≥ 50 | < 50 | < 50 | COc1cc(-c2cncc(C(=O)Nc3ccc(F)cc3C)c2)ccc1O |
